The term GI50 denotes the concentration at which growth is held to half of that of the control. Broadly, the TGI is the concentration giving total growth inhibition.

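Results reflect a 48-hour exposure of cells in 96-well plates to compound at five concentrations. The concentration for 50% growth inhibition is given as GI50. At the TGI there is no net growth.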

Among the data in PubChem BioAssay (NCI) are GI50 and TGI values, retold here.

Test in all cases: DTP human tumour cell line panel, 48 h
Assay [1] has as its system HOP-92 NSCLC.
The test system of assay [2] is K-562 leukemia.
Assay [3] relates to LOX IMVI melanoma.
Assay [4] has as its system MALME-3M melanoma.
Assay [5] relates to NCI-H522 lung.
For assay [6], the system named is OVCAR-4 ovarian.
In assay [7] the test system is SK-MEL-28 melanoma.
For assay [8], the system named is SK-OV-3 ovarian.
Assay [9] relates to SN12C renal.
Assay [10] deals with SW-620 colon.

As to `Clc1ccc(Nc2ncnc3c2sc2ncccc23)c(Cl)c1`, the concentration for 50% growth inhibition (GI50) in assay [1] was 0.0632 µM; in assay [2], 0.27 µM; in [3] it was 0.0214 µM; in assay [4] it was 6.67 µM; in assay [5], less than 0.0122 µM; in [6], more than 100 µM. In addition, the GI50 in [7] is 6.39 µM; in assay [8], 0.137 µM; in assay [9], 0.126 µM; in [10] it was 0.0617 µM. In addition, the TGI in assay [1] is 21.6 µM; in assay [2], more than 100 µM; in assay [3], more than 100 µM; in assay [4], more than 100 µM; in assay [5] it was more than 100 µM; in [6], more than 100 µM. Further, the total growth inhibition concentration (TGI) in [7], in [8], in assay [9] and in [10] was more than 100 µM throughout.

`O=C1Nc2c(ccc(Cl)c2Cl)/C1=C\c1cc(C(F)(F)F)cc(C(F)(F)F)c1`: the GI50 in [1] was 1.44 µM; in assay [2] it was 1.55 µM; in [3], 1.12 µM; in assay [4] it was 0.795 µM; in assay [5], 1.54 µM; in [6], 1.81 µM. For the same compound, the GI50 is 2.1 µM in assay [7], 9.28 µM in assay [8], 3.59 µM in [9] and 1.66 µM in assay [10]. For the same compound, the TGI in assay [1] stood at 7.42 µM; in assay [2], 5.97 µM; in [3] it was 3.69 µM; in [4] it was 8.91 µM; in assay [5], 6.47 µM; in assay [6], 7.66 µM. Further, the TGI came to 7.61 µM in [7], 27.2 µM in [8], 10.9 µM in [9] and 6.1 µM in [10].

For `Nc1nc(Cl)nc2c1ncn2C1OC(CO)C(O)C1O` (stereo not given), the GI50 in assay [1] was 6.27 µM; in assay [2], more than 85.3 µM; in [3], 15.2 µM; in assay [4] it was more than 100 µM; in assay [5] it was more than 100 µM; in assay [6], more than 100 µM. Moreover, the GI50 in assay [7] was more than 100 µM; in assay [8], 7.5 µM; in [9] it was 0.899 µM; in [10], 36.1 µM. For the same compound, the TGI in [1], in assay [2], in [3], in assay [4], in assay [5] and in assay [6] was more than 100 µM each time. The TGI in assay [7], in [8], in assay [9] and in assay [10] was more than 100 µM each time.

Turning to `COc1ccc(Nc2ncccc2C(=O)NCc2cn(Cc3cccc(Oc4ccccc4)c3)nn2)c(OC)c1`, the GI50 is 36.1 µM in [1]; 1.58 µM in [2]; 2.54 µM in assay [3]; 6.21 µM in [4]; 1.44 µM in [5]; 5.27 µM in assay [6]. Also, the GI50 was 5.27 µM in [7], 2.13 µM in assay [8], 3.51 µM in assay [9] and 2.35 µM in assay [10]. For the same compound, the TGI is more than 100 µM in [1]; more than 100 µM in [2]; more than 100 µM in assay [3]; more than 100 µM in assay [4]; 6.46 µM in [5]; more than 100 µM in assay [6]. Besides, the TGI in assay [7] is more than 100 µM; in [8], more than 30.1 µM; in [9] it was more than 100 µM; in assay [10], more than 100 µM.

For `COc1cc([C@@H]2c3cc4c(cc3[C@@H](NC(=O)c3ccc(OC(C)=O)cc3)C3COC(=O)[C@@H]32)OCO4)cc(OC)c1O` (stereo not given in full), the TGI in assay [1] was 7.05 µM; in assay [2], 47.2 µM; in [3], 10.1 µM; in assay [4] it was 11.1 µM; in [5], 4.37 µM; in assay [6] it was more than 100 µM. The total growth inhibition concentration (TGI) in assay [7] is 23.5 µM; in assay [8], 7.88 µM; in assay [9], 4.05 µM; in assay [10], 15 µM.

Turning to `Cc1cc(C)c(C(=O)/C(=C/c2ccccc2)c2ccccc2)c(C)c1`, the TGI in assay [1] was more than 100 µM; in assay [2], more than 100 µM; in assay [4], more than 100 µM; in [5], 77.2 µM; in assay [6] it was more than 100 µM; in assay [7], more than 100 µM. In addition, the TGI in [8], in assay [9] and in assay [10] was more than 100 µM each time.

In the case of `CCCCC1N=CNc2c1ccc1c2[nH]c2ccccc21` (stereo not given), the TGI in assay [1] stood at 9.72 µM; in assay [2], 5.4 µM; in assay [4], 10.5 µM; in [5], 3.57 µM; in assay [6], 8.15 µM; in [7], 24.6 µM. For the same compound, the values for the concentration for total growth inhibition (TGI) in [8], in [9] and in assay [10] were 11.3 µM, 7.8 µM and 3.55 µM, respectively.

For `COc1cc(CC2C(=O)OCC2[C@@H](OC(C)=O)c2ccc3c(c2)OCO3)c(Br)c(OC)c1OC` (stereo not given in full), the TGI was 92.7 µM in assay [1]; more than 100 µM in [3]; more than 100 µM in assay [4]; more than 100 µM in assay [5]; more than 100 µM in assay [6]; more than 100 µM in assay [7]. The TGI in [8], in assay [9] and in assay [10] was more than 100 µM each time.

As to `CN(CC1NCCCC1O)C12CC3CC(CC(C3)C1)C2` (stereo not given), the TGI in assay [1], in assay [2], in assay [3], in [4], in [5] and in assay [6] was more than 100 µM each time. Further, the TGI in [8], in assay [9] and in assay [10] was more than 100 µM each time.

Take `COC(=O)c1cc2c(nc1C)-c1ccccc1OS2(=O)=O`: the TGI in assay [1] is 83.2 µM; in assay [2] it was more than 100 µM; in assay [3], more than 100 µM; in [4], more than 100 µM; in assay [5], more than 100 µM; in [6], more than 100 µM. Moreover, the TGI in assay [8], in assay [9] and in assay [10] was more than 100 µM in each case.
